Assay results: patent US6538032B1, “Phytosphingosine derivatives with antitumor activity” (Charmzone Co., Ltd., priority 2001, dated 2003)

System: Lewis lung carcinoma (LLC) cells
Experiment: inhibition of in vivo growth of Lewis lung carcinoma
Parameters: species or system BDF1 mice
Settings: 2000 μg, intraperitoneal, 20 doses; day 21
Description: The inhibition of cancer cell growth in vivo system was examined in BDF1 mice using Lewis lung carcinoma (LLC) cells. The concentration of LLC cells used was such that each mouse was injected with one million carcinoma cells via subcutaneous injection to induce a cancer. One hundred microliter of TMP liposome (TMP 100 μg) was injected intraperitoneally and intravenously, respectively, 1 day, 3 days, 6 days and 9 days after the injection of the above LLC cells. As a positive control, AG3340 (Agouron Pharmaceuticals Co., Ltd., USA), known as an MMP-2 (matrix metaloproteinasse-2) inhibitor, was suspended in 0.2% tween/0.5% carboxymethyl cellulose and 2 mg of the resulting suspension was intraperitoneally injected daily. […]
TMP.I liposomes (DPPC/Chol/TMP.I=5:5:1 mole ratio) having an anti-metastatic activity, was administered to BDF1 inoculated with Lewis Lung Carcinoma (LLC) cells and their inhibitory effect on the tumor growth was observed. […] The same administration was repeated after 3 days, 6 days and 9 days of the subcutaneous injection of the LLC cancer cells and 21 days after the injection each mouse was killed by dislocation of the cervical vertebra, and the volume of cancer was measured by the following equation and the results are shown in the following table 5. […]

CC1(C)SCCN(S(=O)(=O)c2ccc(Oc3ccncc3)cc2)[C@H]1C(=O)NO [AG3340]
Volume of Cancer: 1100 ± 250 mm^3
